Test results as given in paper PMC7751951 (Cancer chemotherapy and pharmacology, 2015).

What was measured:
[1] = system: recurrent or refractory solid tumors; test: Tumor response; format: in vivo, human (children and adolescents)
[2] = early clinical trials in adults; cited from earlier work
[3] = single-agent docetaxel 150–235 mg/m^2, children and adolescents with refractory solid tumors; cited from earlier work
[4] = Toxicity, DLT and MTD in phase I trial
[5] = system: Breast Cancer Resistance Protein (BCRP/ABCG2); conditions: cited from earlier work
[6] = cited from earlier work
[7] = Plasma pharmacokinetics of tariquidar alone; format: in vivo, human (children and adolescents); conditions: human, intravenous, tariquidar in combination with chemotherapy, at all dose levels
[8] = system: ATPase activity of the Pgp drug efflux pump; conditions: introduction statement, no reference given; cited from earlier work
[9] = human, in vivo, 21 days
Pgp = conditions: adults, 2 mg/kg IV over 30 min; rhodamine uptake in CD56+ lymphocytes; cited from earlier work
[10] = adults, 2 mg/kg IV over 30 min; cited from earlier work

## COc1cccc2c1C(=O)c1c(O)c3c(c(O)c1C2=O)C[C@@](O)(C(=O)CO)C[C@@H]3O[C@H]1C[C@H](N)[C@H](O)[C@H](C)O1 [Doxorubicin]
[1]; person, metastatic adrenocortical carcinoma, two cycles of tariquidar in combination with doxorubicin
  Response: partial response
[1]; subject 014, rhabdomyosarcoma, with tariquidar 2 mg/kg
  Best response [cycle]: partial response
[2]
  increase of systemic exposure in combination with tariquidar: 26%

## CC(=O)O[C@@]12CO[C@@H]1C[C@H](O)[C@@]1(C)C(=O)[C@H](O)C3=C(C)[C@@H](OC(=O)[C@H](O)[C@@H](NC(=O)OC(C)(C)C)c4ccccc4)C[C@@](O)([C@@H](OC(=O)c4ccccc4)[C@H]21)C3(C)C [Docetaxel]
[3]
  platelet counts less than 50,000/μL: not observed
[4]; docetaxel in combination with tariquidar, three of nine participants
  participants with grade 3 thrombocytopenia (platelet count ≥10,000, <50,000/μL): 33%

## CC(=O)O[C@H]1C(=O)[C@@]2(C)[C@H]([C@H](OC(=O)c3ccccc3)[C@]3(O)C[C@H](OC(=O)[C@H](O)[C@@H](NC(=O)c4ccccc4)c4ccccc4)C(C)=C1C3(C)C)[C@]1(OC(C)=O)CO[C@@H]1C[C@@H]2O [paclitaxel]
[2]
  increase of systemic exposure in combination with tariquidar: 44%

## COc1cc2c(cc1OC)CN(CCc1ccc(NC(=O)c3cc(OC)c(OC)cc3NC(=O)c3cnc4ccccc4c3)cc1)CC2 [Tariquidar]
[5]
  inhibition of Breast Cancer Resistance Protein (BCRP/ABCG2): inhibit
[6]
  tolerability in adults: well tolerated
[7]
  Cmax: > 2000 nM
[8]
  effect on ATPase activity of the Pgp drug efflux pump: inhibits
[9]
  tariquidar-related dysgeusia (n = 3), grade: 1
  tariquidar-related hypotension (n = 2), grade: 2
  tariquidar-related nausea (n = 1), grade: 1
  tariquidar-related peripheral edema (n = 1), grade: 2
  tariquidar-related pruritus (n = 1), grade: 1
Pgp
  time for which maximum inhibition of Pgp was maintained: 24 h
[10]
  area under the concentration time curve (AUC0–48): 12.6 µM·h
  clearance: 160 mL/min/m^2
  half-life: 26 h
[4]; escalation up to 2 mg/kg
  maximum tolerated dose of tariquidar: No maximum tolerated dose was achieved

## CCC1=C[C@@H]2CN(C1)Cc1c([nH]c3ccccc13)[C@@](C(=O)OC)(c1cc3c(cc1OC)N(C)[C@H]1[C@@](O)(C(=O)OC)[C@H](OC(C)=O)[C@]4(CC)C=CCN5CC[C@]31[C@@H]54)C2 [Vinorelbine]
[1]; subject 009, pancreatoblastoma, with tariquidar 1.5 mg/kg
  Best response [cycle]: complete radiographic response
[2]
  change in pharmacokinetics in combination with tariquidar: No change
